We go through eight molecules from ChEMBL document CHEMBL1201862, “PubChem BioAssay data set” (2004).

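How tested: cells in 96-well plates exposed to compound for 48 hours at five concentrations. At the GI50, growth is halved.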 The source made the active and inactive calls. Rule as the data show it: active = GI50 up to about 1.1 µM and inactive = higher. Where only a bound is given, the exact number is not on record here.

Experiment in all cases: inhibition of tumour cell growth, NCI panel, 48 h
Assay [1] concerns BT-549.
In assay [2] the test system is CAKI-1.
Assay [3] concerns COLO 205.
Assay [4] has as its system DU-145.
In assay [5] the test system is M14.
For assay [6], the system named is MDA-MB-231.
Assay [7] relates to Malme-3M.
Assay [8] concerns NCI/ADR-RES.
Assay [9] concerns OVCAR-4.
Assay [10] deals with OVCAR-5.
Assay [11] deals with PC-3.
Assay [12] relates to SF-268.
Assay [13] deals with SK-MEL-2.
Assay [14] has as its system SK-MEL-5.
The subject of assay [15] is SK-OV-3.
In assay [16] the test system is SN12C.
Assay [17] concerns SW-620.
For assay [18], the system named is T47D.
Assay [19] relates to TK-10.
Assay [20] has as its system UACC-62.

As to `CC(C)CCC[C@@H](C)[C@H]1CC[C@H]2[C@@H]3CC[C@H]4C[C@@H](CCC=C(c5cc(Cl)c(O)c(C(=O)O)c5)c5cc(Cl)c(O)c(C(=O)O)c5)CC[C@]4(C)[C@H]3CC[C@]12C`, the GI50 in [1], in assay [2], in assay [3], in [4], in [5] and in assay [6] was > 100 µM (inactive) throughout. Besides, the GI50 in assay [7], in [8], in [9], in assay [10], in assay [11] and in [12] was > 100 µM (inactive) each time. The GI50 in [13], in assay [14], in [15], in assay [16], in assay [17] and in [18] was > 100 µM (inactive) throughout. Besides, the GI50 in [19] and in [20] was > 100 µM (inactive) each time.

Take `N#CC1=C(N2CCOCC2)CCC1`: the GI50 in assay [1], in assay [2], in [3], in assay [4], in [5] and in assay [6] was > 100 µM (inactive) each time. Besides, the GI50 in [7], in assay [8], in assay [9], in [10], in assay [11] and in assay [12] was > 100 µM (inactive) throughout. The GI50 in assay [13], in assay [14], in assay [15], in [16], in assay [17] and in [18] was > 100 µM (inactive) throughout. In addition, the GI50 in assay [19] and in assay [20] was > 100 µM (inactive) in each case.

Take `N#Cc1nc(Sc2cnsn2)c(Sc2cnsn2)nc1C#N`: the GI50 was 21.4 µM (inactive) in [1]; 6.47 µM (inactive) in assay [2]; 3.85 µM (inactive) in [3]; 17.1 µM (inactive) in assay [4]; 20.4 µM (inactive) in assay [5]; 23.9 µM (inactive) in assay [6]. For the same molecule, the GI50 was 4.81 µM (inactive) in [7]; 22.8 µM (inactive) in [8]; 21.7 µM (inactive) in assay [9]; 18.9 µM (inactive) in assay [10]; 21.6 µM (inactive) in assay [11]; 19.4 µM (inactive) in [12]. Further, the GI50 in [13] was 21.2 µM (inactive); in [14], 14.9 µM (inactive); in [15], 17.9 µM (inactive); in [16], 21.4 µM (inactive); in assay [17], 2.25 µM (inactive); in assay [18], 6.25 µM (inactive). Besides, the GI50 in assay [19] was 5.12 µM (inactive); in assay [20], 17.6 µM (inactive).

Take `O=C1Nc2ccccc2/C1=C\c1c(Cl)nc2n1CCS2`: the GI50 was 19.5 µM (inactive) in assay [1]; 34.8 µM (inactive) in assay [2]; 17.9 µM (inactive) in assay [3]; 30.6 µM (inactive) in [4]; 33.7 µM (inactive) in [5]; 19 µM (inactive) in assay [6]. Moreover, the GI50 is 23.7 µM (inactive) in assay [7]; 23.6 µM (inactive) in assay [8]; 31.5 µM (inactive) in [9]; 29 µM (inactive) in assay [10]; 24.5 µM (inactive) in assay [11]; 27.4 µM (inactive) in assay [12]. Also, the GI50 was 14.1 µM (inactive) in assay [13]; 14.6 µM (inactive) in [14]; 19.5 µM (inactive) in [15]; 24.9 µM (inactive) in assay [16]; 31.3 µM (inactive) in assay [17]; 19.6 µM (inactive) in assay [18]. Moreover, the GI50 in [19] is 19.7 µM (inactive); in assay [20], 13.5 µM (inactive).

`COC12OC3CC4(C)C(=CC3OC(OC(C)C1O)C2O)CCC1C4CCC2(C)C(c3ccc(=O)oc3)CCC12O` (stereo not given): the GI50 in [1] is 0.00143 µM (active); in [2] it was 0.00147 µM (active); in assay [3], 0.00196 µM (active); in [4], 0.00129 µM (active); in assay [5] it was 0.0023 µM (active); in [6], 0.00281 µM (active). Besides, the GI50 was 0.00168 µM (active) in assay [7]; 0.00151 µM (active) in assay [8]; 0.00126 µM (active) in assay [9]; 0.00132 µM (active) in assay [10]; 0.00142 µM (active) in [11]; 0.00105 µM (active) in assay [12]. Also, the GI50 in assay [13] is 0.00205 µM (active); in assay [14] it was < 0.001 µM (active); in assay [15] it was 0.00289 µM (active); in [16], < 0.001 µM (active); in [17] it was 0.00178 µM (active); in assay [18], 0.00227 µM (active). Also, the GI50 in assay [19] is 0.00122 µM (active); in assay [20], 0.00233 µM (active).

In the case of `CCCCCC/C=C\CCCCCCCCCc1cccc(O)c1C(=O)O` [GINKGOLIC ACID 17:1], the GI50 in assay [1], in [2], in assay [3], in [4], in assay [5] and in [6] was > 100 µM (inactive) in each case. In addition, the GI50 in [7] is > 100 µM (inactive); in [8], > 100 µM (inactive); in assay [9], > 100 µM (inactive); in assay [10], > 100 µM (inactive); in [11] it was 51.9 µM (inactive); in [12], > 100 µM (inactive). Moreover, the GI50 was 31.7 µM (inactive) in [13]; 35.5 µM (inactive) in assay [14]; > 100 µM (inactive) in [15]; > 100 µM (inactive) in assay [16]; > 100 µM (inactive) in assay [17]; > 100 µM (inactive) in [18]. In addition, the GI50 is 65 µM (inactive) in assay [19] and 34 µM (inactive) in assay [20].

`Cc1ccccc1C1=C/C(=C(\SS/C(C(=O)c2ccc(OCC(=O)O)c(Cl)c2Cl)=C2\C=C(c3ccccc3C)SS2)C(=O)c2ccc(OCC(=O)O)c(Cl)c2Cl)SS1`: the GI50 in assay [1] is 33.3 µM (inactive); in [2] it was 37.6 µM (inactive); in assay [3], 12.2 µM (inactive); in [4], 39.4 µM (inactive); in [5], 25.5 µM (inactive); in assay [6], 22.6 µM (inactive). Further, the GI50 in assay [7] was 40.1 µM (inactive); in assay [8], 63 µM (inactive); in [9] it was 21.1 µM (inactive); in assay [10], 51.1 µM (inactive); in [11] it was 6.92 µM (inactive); in assay [12], 18 µM (inactive). Moreover, the GI50 in assay [13] is 21.4 µM (inactive); in [14] it was 26.3 µM (inactive); in [15], 39.9 µM (inactive); in [16], 20.1 µM (inactive); in assay [17], 26.5 µM (inactive); in assay [18], 5.16 µM (inactive). In addition, the GI50 in [19] is 35.9 µM (inactive); in [20] it was 18 µM (inactive).

In the case of `O=C(O)c1c2c(cc3c1CC1(Cc4ccccc4C1=O)C3)CCC2` (stereo not given), the GI50 in assay [1] is 33 µM (inactive); in [2], 41.5 µM (inactive); in assay [3], 17.4 µM (inactive); in [4] it was 64 µM (inactive); in assay [5], 18.9 µM (inactive); in [6] it was 34.6 µM (inactive). Further, the GI50 is 16.5 µM (inactive) in assay [7]; 28.7 µM (inactive) in assay [8]; 27.8 µM (inactive) in [9]; 65.5 µM (inactive) in assay [10]; 27.2 µM (inactive) in assay [11]; 59.4 µM (inactive) in assay [12]. For the same molecule, the GI50 in [13] was 19 µM (inactive); in assay [14] it was 19.6 µM (inactive); in assay [15] it was 47.4 µM (inactive); in assay [16], 46.5 µM (inactive); in assay [17], 30.1 µM (inactive); in [18], 32.5 µM (inactive). The GI50 was > 66.7 µM (inactive) in assay [19] and 21.8 µM (inactive) in assay [20].
